Data reported in US7601744B2, “Benzothiadiazolylphenylalkylamine derivatives and methods of their use” (Wyeth, priority 2005, dated 2009).
Where a name gives a salt, the structure may show the parent alone.

Biological target: T1, hNET (Homo sapiens, UniProt P23975)
T1 construct: expressed in transfected cells
Assay: Norepinephrine (NE) uptake assay in MDCK-Net6 cells
Format: cell-based
Settings: [3H]NE uptake
Protocol: MDCK-Net6 cells, stably transfected with human hNET (Pacholczyk, T., R. D. Blakely, and S. G. Amara, Nature, 1991, 350(6316): p. 350-4) were cultured in growth medium containing high glucose DMEM (Gibco, Cat. No. 11995), 10% FBS (dialyzed, heat-inactivated, US Bio-Technologies, Lot FBD1129HI) and 500 µg/ml G418 (Gibco, Cat. No. 10131). Cells were plated at 300,000/T75 flask and cells were split twice weekly. The JAR cell line (human placental choriocarcinoma) was purchased from ATCC (Cat. No. HTB-144). The cells were cultured in growth medium containing RPMI 1640 (Gibco, Cat. No. 72400), 10% FBS (Irvine, Cat. No. 3000), 1% sodium pyruvate (Gibco, Cat. No. 1136) and 0.25% glucose. Cells were plated at 250,000 cells/T75 flask and split twice weekly. For all assays, cells were plated in Wallac 96-well sterile plates (PerkinElmer, Cat. No. 3983498)
On day 1, cells were plated at 3,000 cells/well in growth medium and maintained in a cell incubator (37° C., 5% CO2). On day 2, growth medium was replaced with 200 μl of assay buffer (25 mM HEPES; 120 mM NaCl; 5 mM KCl; 2.5 mM CaCl2; 1.2 mM MgSO4; 2 mg/ml glucose (pH 7.4, 37° C.)) containing 0.2 mg/ml ascorbic acid and 10 μM pargyline. […] The plates were counted in a Wallac Microbeta counter (PerkinElmer) to collect the raw cpm data. […]

T1 sequence (P23975 whole entry): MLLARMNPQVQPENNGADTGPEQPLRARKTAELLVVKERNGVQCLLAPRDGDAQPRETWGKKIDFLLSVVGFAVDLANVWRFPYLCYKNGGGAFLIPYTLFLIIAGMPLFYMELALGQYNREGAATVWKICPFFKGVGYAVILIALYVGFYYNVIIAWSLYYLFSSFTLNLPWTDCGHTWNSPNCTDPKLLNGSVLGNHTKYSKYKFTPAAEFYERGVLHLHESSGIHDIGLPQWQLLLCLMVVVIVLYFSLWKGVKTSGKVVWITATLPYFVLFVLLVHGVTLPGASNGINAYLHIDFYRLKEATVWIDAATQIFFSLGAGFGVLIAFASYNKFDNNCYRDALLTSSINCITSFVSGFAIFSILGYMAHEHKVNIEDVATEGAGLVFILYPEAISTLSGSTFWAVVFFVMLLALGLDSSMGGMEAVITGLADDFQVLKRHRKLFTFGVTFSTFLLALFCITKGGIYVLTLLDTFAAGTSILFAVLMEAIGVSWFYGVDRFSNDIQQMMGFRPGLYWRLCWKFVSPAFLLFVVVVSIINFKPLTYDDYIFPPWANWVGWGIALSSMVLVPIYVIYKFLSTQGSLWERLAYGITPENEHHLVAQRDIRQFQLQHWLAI

inhibition at 6 µM: 33%
SMILES: CNCC[C@@H](c1ccccc1)N1c2ccccc2N(C)S1(=O)=O [Example 5, (3S)-N-methyl-3-(3-methyl-2,2-dioxido-2,1,3-benzothiadiazol-1(3H)-yl)-3-phenylpropan-1-amine hydrochloride]
